Test results: patent publication EP1000062B1, “TRICYCLIC VASOPRESSIN AGONISTS” (Wyeth, priority 1997, dated 1999)

Tested on: Vasopressin V2
Assay: Vasopressin V2 agonist effects of test compounds in normal conscious water-loaded rats
Format: in vivo
Settings: Sprague-Dawley (CD) rats, oral 10 mg/kg, urine collected for four hours; for Osmolality (% Increase): change in osmolality as percent of control; for Urine Volume (% decrease): vs. control
Procedure: Vasopressin V2 Agonist Effects of Test Compounds in Normal Conscious Water-Loaded Rats:
On the day of test, rats were placed individually into metabolic cages equipped with devices to separate the feces from the urine and containers for collection of urine. Test compound or reference agent was given at an oral dose of 10 mg/kg in a volume of 10 ml /kg. […] Thirty minutes after dosing the test compound, rats were gavaged with water at 30 ml /kg into the stomach using a feeding needle. During the test, rats were not provided with water or food. Urine was collected for four hours after dosing of the test compound. At the end of four hours, urine volume was measured. […] Determinations of Na^+, K^+ and Cl^- ion were carried out using ion specific electrodes in a Beckman SYNCHRON EL-ISE Electrolyte System analyzer. […] In the screening test, two rats were used for each compound. If the difference in the urine volume of the two rats was greater than 50%, a third rat was used.

| Compound | Osmolality (% Increase) [%] | Urine Volume (% decrease) [%] |
| --- | --- | --- |
| O=C(c1ccc(-c2ccn(C(=O)c3ccccc3-c3ccccc3)n2)cc1)N1Cc2cccn2Cc2ccccc21 [Example 40, {4-[1-(Biphenyl-2-carbonyl)-1H-pyrazol-3-yl]-phenyl}-(5H,11H-pyrrolo[2,1-c][1,4]benzodiazepin-10-yl)-methanone] | 183 | 46 |
| O=C(c1ccc(-c2ccn(C(=O)c3ccccc3-c3ccc(C(F)(F)F)cc3)n2)cc1)N1Cc2cccn2Cc2ccccc21 [Example 41, {4-[1-(4'-Trifluoromethyl-biphenyl-2-carbonyl)-1H-pyrazol-3-yl]-phenyl}-(5H,11H-pyrrolo[2,1-c][1,4]benzodiazepin-10-yl)-methanone] | 240 | 69 |
| Cc1n[nH]c(-c2ccc(C(=O)N3Cc4cccn4Cc4ccccc43)cc2)n1 [Example 50, [4-(5-Methyl-2H-[1,2,4]triazol-3-yl)-phenyl]-(5H,11H-pyrrolo[2,1-c][1,4]-benzodiazepin-10-yl)-methanone] | 223 | 53 |
| Cc1nc(-c2ccc(C(=O)N3Cc4cccn4Cc4ccccc43)cc2)n(C)n1 [Example 51, [4-(2,5-Dimethyl-2H-[1,2,4]triazol-3-yl)-phenyl]-(5H,11H-pyrrolo[2,1-c]-[1,4]benzodiazepin-10-yl)-methanone] |  | 72 |
| Cc1noc(-c2ccc(C(=O)N3Cc4cccn4Cc4ccccc43)cc2)n1 [Example 52, [4-(3-Methyl[1,2,4]oxadiazol-5-yl)-phenyl]-(5H,11H-pyrrolo-[2,1-c][1,4]-benzodiazepin-10-yl)-methanone] | 261 | 66 |
| Cn1cc(-c2ccc(C(=O)N3Cc4cccn4Cc4ccccc43)cc2)cn1 [Example 55, [4-(1-Methyl-1H-pyrazol-4-yl)-phenyl]-(5H,11H-pyrrolo[2,1-c][1,4]-benzodiazepin-10-yl)-methanone] | 164 | 80 |
| Cn1cc(-c2ccc(C(=O)N3Cc4cccn4Cc4ccccc43)cn2)cn1 [Example 57, [6-(1-Methyl-1H-pyrazol-4-yl)-pyridin-3-yl]-(5H,11H-pyrrolo[2,1-c][1,4]-benzodiazepin-10-yl)-methanone] | 288 | 77 |
| O=C(c1ccc(-n2cccn2)cc1)N1Cc2cccn2Cc2ccccc21 [Example 58, [4-(Pyrazol-1-yl)-phenyl]-(5H,11H-pyrrolo[2,1-c][1,4]benzodiazepin-10-yl)-methanone] | 324 | 49 |
| Cc1ccn(-c2ccc(C(=O)N3Cc4cccn4Cc4ccccc43)cc2)n1 [Example 59, [4-(3-Methyl-pyrazol-1-yl)-phenyl]-(5H,11H-pyrrolo[2,1-c][1,4]-benzodiazepin-10-yl)-methanone] | 607 | 80 |
| Cc1cnn(-c2ccc(C(=O)N3Cc4cccn4Cc4ccccc43)cc2)c1 [Example 60, [4-(4-Methyl-pyrazol-1-yl)-phenyl]-(5H,11H-pyrrolo[2,1-c][1,4]-benzodiazepin-10-yl)-methanone] | 165 | 54 |
| Cc1cc(C)n(-c2ccc(C(=O)N3Cc4cccn4Cc4ccccc43)cc2)n1 [Example 61, [4-(3,5-Dimethyl-pyrazol-1-yl)-phenyl]-(5H,11H-pyrrolo[2,1-c][1,4]-benzodiazepin-10-yl)-methanone] | 245 | 59 |
| O=C(c1ccc(-n2ccc(C(F)(F)F)n2)cc1)N1Cc2cccn2Cc2ccccc21 [Example 62, (5H,11H-Pyrrolo[2,1-c][1,4]benzodiazepin-10-yl)-[4-(3-trifluoromethyl-pyrazol-1-yl)-phenyl]-methanone] | 150 | 22 |
| O=C(c1ccc(-n2ccnc2)cc1)N1Cc2cccn2Cc2ccccc21 [Example 63, [4-(Imidazol-1-yl)-phenyl]-(5H,11H-pyrrolo[2,1-c][1,4]benzodiazepin-10-yl)-methanone] | 214 | 27 |
| Cc1cn(-c2ccc(C(=O)N3Cc4cccn4Cc4ccccc43)cc2)cn1 [Example 64, [4-(4-Methyl-imidazol-1-yl)-phenyl]-(5H,11H-pyrrolo[2,1-c][1,4]-benzodiazepin-10-yl)-methanone] | 349 | 79 |
| Cn1ccc(-c2ccc(C(=O)N3Cc4cccn4Cc4ccccc43)c(Cl)c2)n1 [Example 71, [2-Chloro-4-(1-methyl-1H-pyrazol-3-yl)-phenyl]-(5H,11H-pyrrolo[2,1-c]-[1,4]benzodiazepine-10-yl)-methanone] | 264 | 84 |
| N#Cc1ccc(C(=O)N2Cc3cccn3Cc3ccccc32)c(Cl)c1 [Example 77, 3-Chloro-4-(5H,11H-pyrrolo[2,1-c][1,4]benzodiazepine-10-carbonyl)-benzonitrile] | 90 | 13 |
| O=C(O)c1ccc(C(=O)N2Cc3cccn3Cc3ccccc32)c(Cl)c1 [Example 78, 3-Chloro-4-(5H,11H-Pyrrolo[2,1-c][1,4]benzodiazepine-10-carbonyl)-benzoic acid] | 115 | 21 |
| NC(=O)c1ccc(C(=O)N2Cc3cccn3Cc3ccccc32)c(Cl)c1 [Example 79, 3-Chloro-4-(5H,11H-pyrrolo[2,1-c][1,4]benzodiazepine-10-carbonyl)-benzamide] | 123 | 38 |
| Cc1n[nH]c(-c2ccc(C(=O)N3Cc4cccn4Cc4ccccc43)c(Cl)c2)n1 [Example 81, [2-Choro-4-(5-methyl-2H-[1,2,4]triazol-3-yl)phenyl]-(5H,11H-pyrrolo[2,1-c][1,4]benzodiazepine-10-carbonyl)-methanone] | 490 | 82 |
| O=C(c1ccc(-c2ncn[nH]2)cc1Cl)N1Cc2cccn2Cc2ccccc21 [Example 83, [2-Chloro-4-(2H-1,2,4-triazol-3-yl)-phenyl]-(5H,11H-pyrrolo[2,1-c][1,4]-benzodiazepin-10-yl)-methanone] | 442 | 85 |
| Cn1ncnc1-c1ccc(C(=O)N2Cc3cccn3Cc3ccccc32)c(Cl)c1 [Example 84, [2-Chloro-4-(2-methyl-2H-[1,2,4]triazol-3-yl)-phenyl]-(5H,11H-pyrrolo [2,1-c][1,4]benzodiazepin-10-carbonyl)-methanone] | 291 | 56 |
| Cc1nc(-c2ccc(C(=O)N3Cc4cccn4Cc4ccccc43)c(Cl)c2)n(C)n1 [Example 85, 4-[(2,5-Dimethyl-2H-[1,2,4]triazol-3-yl)-2-chloro-phenyl]-(5H,11H-pyrrolo[2,1-c][1,4]benzodiazepin-10-carbonyl)-methanone] | 436 | 76 |
| O=C(c1ccc(-c2nnn[nH]2)cc1Cl)N1Cc2cccn2Cc2ccccc21 [Example 86, [2-Chloro-4-(1H-tetrazol-5-yl)-phenyl]-(5H,11H-pyrrolo[2,1-c][1,4]benzodiazepin-10-yl)-methanone] | 86 | 5 |
| Cc1ccn(-c2ccc(C(=O)N3Cc4ccc(CN(C)C)n4Cc4ccccc43)c(Cl)c2)n1 [Example 87, [2-Chloro-4-(3-methyl-pyrazol-1-yl)-phenyl]-(3-dimethylaminomethyl-5H,11H-pyrrolo[2,1-c][1,4]benzodiazepin-10-yl)-methanone] | 214 | 71 |
| Cc1ccn(-c2ccc(C(=O)N3Cc4ccc(Br)n4Cc4ccccc43)c(Cl)c2)n1 [Example 88, (3-Bromo-5H,11H-pyrrolo[2,1-c][1,4]benzodiazepin-10-yl)-[2-chloro-4-(3-methyl-pyrazol-1-yl)-phenyl]-methanone] | 226 | 68 |
| Cc1ccn(-c2ccc(C(=O)N3Cc4cccn4Cc4ccccc43)c(Br)c2)n1 [Example 90] | 413 | 61 |
| O=C(c1ccc(F)cc1F)N1Cc2cccn2Cc2ccccc21 [Example 91, (2,4-Difluoro-phenyl)-(5H,11H-pyrrolo[2,1-c][1,4]benzodiazepin-10-yl)-methanone] | 69 | 22 |
| Cc1ccn(-c2ccc(C(=O)N3Cc4cccn4Cc4ccccc43)c(F)c2)n1 [Example 92, [2-Fluoro-4-(3-methyl-pyrazol-1-yl)-phenyl]-(5H,11H-pyrrolo[2,1-c][1,4]-benzodiazepin-10-yl)-methanone] | 454 | 69 |
